Laboratory results taken from patent publication US12564194B2, “Herbicide mixture, herbicidal composition, method and kit for controlling undesired vegetation” (Adama Agan Ltd., priority 2020, dated 2026).

Columns and labels:
Format in all cases: in vivo
Aegilops tauschii [1] = assay: Soil sealing treatment pot experiment for controlling Aegilops tauschii (Example 1); details: for control effect on Aegilops tauschii: single active ingredient, summary of Table 2
Description: (§1) Referring to an article of Colby, S. R. i.e., Calculation of the synergistic and antagonistic response of herbicide combinations. Weeds 1967, 15, pp. 20-22 (which is incorporated herein in its entirety by reference), the theoretical value E0 of a given mixture of three active ingredients may be predicted according to the following equation, then evaluating whether there is synergy.
(§2) [formula] • wherein: • E0 is the theoretical fresh weight survival rate for the mixture of pyroxasulfone, chlorotoluron and […]; • X is the measured fresh weight survival rate for pyroxasulfone used alone in the same dosage as that in the mixture; • Y is the measured fresh weight survival rate for chlorotoluron used alone in the same dosage as that in the mixture; • Z is the measured fresh weight survival rate for mesosulfuron-methyl used alone in the same dosage as that in the mixture. • E is the measured fresh weight survival rate for the mixture of pyroxasulfone, chlorotoluron and mesosulfuron-methyl. • E0-E value is calculated to evaluate the combined effect of pyroxasulfone, chlorotoluron and mesosulfuron-methyl on the selected weeds.
(§3) In this example, the herbicidal activity of a mixture of pyroxasulfone, chlorotoluron and mesosulfuron-methyl for soil sealing treatment to control Aegilops tauschii is investigated by a pot experiment method under the conditions of a glass greenhouse. This example is carried out in accordance with “NY/T 1155.4-2006 Guidelines for Indoor Bioassay Tests of Pesticides, Herbicides Part 4: Activity Determination Tests, Stem and Leaf Spray Method”.
(§4) • Pyroxasulfone: pyroxasulfone (850 g/Kg, WG) from Adama Agan LTD. • Chlorotoluron: chlorotoluron (90 wt %, WG) from Adama Agan LTD. • Mesosulfuron-methyl: Sigma (30 g/L, OD) from Bayer AG. • Test location: Greenhouse of Institute of Plant Protection, Shandong Academy of Agricultural Sciences • Cultivation of test materials: The test soil is formed by mixing the 20 cm layer loam on the ground surface and the culture medium in a ratio of 3:1 as cultivation soil.
(§5) The test weeds are cultivated in a glass greenhouse at a temperature of 15-30° C. and natural light. A certain amount of Aegilops tauschil seeds are sown in a plastic pot with a diameter of 9 cm, covering with 1-2 mm soil, and putting them in an enamel dish filled with water. The bottom infiltration method is used to water them, waiting for the water to seep to the soil surface, and then transferring to a glass greenhouse for cultivation. The agents are applied on the second day after sowing Aegilops tauschii seeds.
(§6) For each active ingredient, the multiple dilution method is used to obtain the other five lower dosages from the highest dosage. A certain amount of agent is measured by pipette or balance, adding it directly to the water, and then diluting it to the required dosage by the multiple dilution method.
(§7) Spraying treatment: ASS-4 automatic control spraying system with a fan-shaped nozzle is used indoors to spray agent, the running speed is adjusted based on nozzle pressure, flow rate, etc. to spray 50 mL of chemical solution on the actual spray area of 1.1 m^2 (equivalent to 30 liters per mu), arranging the plastic pots to be processed on the spraying table evenly, and spraying evenly. The spraying pressure is 0.35 MPa, and the flow rate of the fan-shaped nozzle is 800 mL/min, spraying in order from low dosage to high dosage. Each treatment is repeated 3 times. After spraying, let it dry for one day, placing it in a glass greenhouse, and watering it regularly to keep moist.
Application time and frequency: the experiment is conducted on the second day after sowing Aegilops tauschii seeds, and the soil is evenly sprayed. The application time is Mar. 10, 2020, with one application.
Weed investigation method and time: after applying the agent, the symptoms of weed damage (such as growth inhibition, chlorosis, deformity, etc.) are recorded in detail. […]

Lolium multiflorum Lamk = assay: Soil sealing treatment pot experiment for controlling Lolium multiflorum Lamk (Example 2); details: 35 days
Aegilops tauschii [2] = assay: Soil sealing treatment pot experiment for controlling Aegilops tauschii, more mixing ratios (Example 3)
Description: as §1, §2, §3, §4, §5, §6, §7
Weed investigation method and time: after applying the agent, the symptoms of weed damage (such as growth inhibition, chlorosis, deformity, etc.) are recorded in detail. After 35 days, the fresh weight of aerial part of the weeds in each treatment is weighed, and the measured fresh weight inhibition rate and the measured fresh weight survival rate for each treatment are calculated according to the following equations: […]

Cc1ccc(NC(=O)N(C)C)cc1Cl [chlorotoluron, 3-(3-chloro-4-methylphenyl)-N,N-dimethylurea]
Measured fresh weight survival rate (%) - E (Aegilops tauschii [1]; 70.3125 gai/ha, 35 days): 102.6% | Measured fresh weight survival rate (%) - E (Aegilops tauschii [1]; 140.625 gai/ha, 35 days): 101.3% | Measured fresh weight survival rate (%) - E (Aegilops tauschii [1]; 281.25 gai/ha, 35 days): 92.21% | Measured fresh weight survival rate (%) - E (Aegilops tauschii [1]; 562.5 gai/ha, 35 days): 81.82% | Measured fresh weight survival rate (%) - E (Aegilops tauschii [1]; 1125 gai/ha, 35 days): 72.73% | Measured fresh weight survival rate (%) - E (Aegilops tauschii [1]; 2250 gai/ha, 35 days): 36.36% | inhibition at 70.3125 g/ha (Aegilops tauschii [1]; Aegilops tauschii, soil, 840 h, 70.3125 gai/ha, 35 days, read-out: Measured fresh weight inhibition rate (%)): -2.6% | inhibition at 140.625 g/ha (Aegilops tauschii [1]; Aegilops tauschii, soil, 840 h, 140.625 gai/ha, 35 days, read-out: Measured fresh weight inhibition rate (%)): -1.3% | inhibition at 281.25 g/ha (Aegilops tauschii [1]; Aegilops tauschii, soil, 840 h, 281.25 gai/ha, 35 days, read-out: Measured fresh weight inhibition rate (%)): 7.79% | inhibition at 562.5 g/ha (Aegilops tauschii [1]; Aegilops tauschii, soil, 840 h, 562.5 gai/ha, 35 days, read-out: Measured fresh weight inhibition rate (%)): 18.2% | inhibition at 1125 g/ha (Aegilops tauschii [1]; Aegilops tauschii, soil, 840 h, 1125 gai/ha, 35 days, read-out: Measured fresh weight inhibition rate (%)): 27.3% | inhibition at 2250 g/ha (Aegilops tauschii [1]; Aegilops tauschii, soil, 840 h, 2250 gai/ha, 35 days, read-out: Measured fresh weight inhibition rate (%)): 63.6% | control effect on Aegilops tauschii (Aegilops tauschii [1]): certain effect | Measured fresh weight survival rate (%) - E (Lolium multiflorum Lamk; 70.3125 gai/ha): 96.7% | Measured fresh weight survival rate (%) - E (Lolium multiflorum Lamk; 140.625 gai/ha): 91.21% | Measured fresh weight survival rate (%) - E (Lolium multiflorum Lamk; 281.25 gai/ha): 87.91% | Measured fresh weight survival rate (%) - E (Lolium multiflorum Lamk; 562.5 gai/ha): 83.52% | Measured fresh weight survival rate (%) - E (Lolium multiflorum Lamk; 1125 gai/ha): 25.27% | Measured fresh weight survival rate (%) - E (Lolium multiflorum Lamk; 2250 gai/ha): 0% | inhibition at 70.3125 g/ha (Lolium multiflorum Lamk; Lolium multiflorum, soil, 840 h, 70.3125 gai/ha, read-out: Measured fresh weight inhibition rate (%)): 3.3% | inhibition at 140.625 g/ha (Lolium multiflorum Lamk; Lolium multiflorum, soil, 840 h, 140.625 gai/ha, read-out: Measured fresh weight inhibition rate (%)): 8.79% | inhibition at 281.25 g/ha (Lolium multiflorum Lamk; Lolium multiflorum, soil, 840 h, 281.25 gai/ha, read-out: Measured fresh weight inhibition rate (%)): 12.1% | inhibition at 562.5 g/ha (Lolium multiflorum Lamk; Lolium multiflorum, soil, 840 h, 562.5 gai/ha, read-out: Measured fresh weight inhibition rate (%)): 16.5% | inhibition at 1125 g/ha (Lolium multiflorum Lamk; Lolium multiflorum, soil, 840 h, 1125 gai/ha, read-out: Measured fresh weight inhibition rate (%)): 74.7% | inhibition at 2250 g/ha (Lolium multiflorum Lamk; Lolium multiflorum, soil, 840 h, 2250 gai/ha, read-out: Measured fresh weight inhibition rate (%)): 100% | Actual fresh weight survival rate (%) - E (Aegilops tauschii [2]; 562.5 gai/ha): 80.2% | Actual fresh weight survival rate (%) - E (Aegilops tauschii [2]; 1125 gai/ha): 72.4% | Actual fresh weight survival rate (%) - E (Aegilops tauschii [2]; 2250 gai/ha): 52.6% | inhibition at 562.5 g/ha (Aegilops tauschii [2]; Aegilops tauschii, soil, 562.5 gai/ha, read-out: Actual fresh weight inhibition rate %): 19.8% | inhibition at 1125 g/ha (Aegilops tauschii [2]; Aegilops tauschii, soil, 1125 gai/ha, read-out: Actual fresh weight inhibition rate %): 27.6% | inhibition at 2250 g/ha (Aegilops tauschii [2]; Aegilops tauschii, soil, 2250 gai/ha, read-out: Actual fresh weight inhibition rate %): 47.4%

COC(=O)c1ccc(CNS(C)(=O)=O)cc1S(=O)(=O)NC(=O)Nc1nc(OC)cc(OC)n1 [mesosulfuron-methyl, 2-[3-(4,6-dimethoxypyrimidin-2-yl)ureasulfonyl]-4-methylsulfonamide methyl benzoate]
Measured fresh weight survival rate (%) - E (Aegilops tauschii [1]; 1.25 gai/ha, 35 days): 96.1% | Measured fresh weight survival rate (%) - E (Aegilops tauschii [1]; 2.5 gai/ha, 35 days): 100% | Measured fresh weight survival rate (%) - E (Aegilops tauschii [1]; 5 gai/ha, 35 days): 94.81% | Measured fresh weight survival rate (%) - E (Aegilops tauschii [1]; 10 gai/ha, 35 days): 83.12% | Measured fresh weight survival rate (%) - E (Aegilops tauschii [1]; 20 gai/ha, 35 days): 71.43% | Measured fresh weight survival rate (%) - E (Aegilops tauschii [1]; 40 gai/ha, 35 days): 88.31% | inhibition at 1.25 g/ha (Aegilops tauschii [1]; Aegilops tauschii, soil, 840 h, 1.25 gai/ha, 35 days, read-out: Measured fresh weight inhibition rate (%)): 3.9% | inhibition at 2.5 g/ha (Aegilops tauschii [1]; Aegilops tauschii, soil, 840 h, 2.5 gai/ha, 35 days, read-out: Measured fresh weight inhibition rate (%)): 0% | inhibition at 5 g/ha (Aegilops tauschii [1]; Aegilops tauschii, soil, 840 h, 5 gai/ha, 35 days, read-out: Measured fresh weight inhibition rate (%)): 5.19% | inhibition at 10 g/ha (Aegilops tauschii [1]; Aegilops tauschii, soil, 840 h, 10 gai/ha, 35 days, read-out: Measured fresh weight inhibition rate (%)): 16.9% | inhibition at 20 g/ha (Aegilops tauschii [1]; Aegilops tauschii, soil, 840 h, 20 gai/ha, 35 days, read-out: Measured fresh weight inhibition rate (%)): 28.6% | inhibition at 40 g/ha (Aegilops tauschii [1]; Aegilops tauschii, soil, 840 h, 40 gai/ha, 35 days, read-out: Measured fresh weight inhibition rate (%)): 11.7% | control effect on Aegilops tauschii (Aegilops tauschii [1]): substantively ineffective | Measured fresh weight survival rate (%) - E (Lolium multiflorum Lamk; 1.25 gai/ha): 96.7% | Measured fresh weight survival rate (%) - E (Lolium multiflorum Lamk; 2.5 gai/ha): 94.51% | Measured fresh weight survival rate (%) - E (Lolium multiflorum Lamk; 5 gai/ha): 83.52% | Measured fresh weight survival rate (%) - E (Lolium multiflorum Lamk; 10 gai/ha): 60.44% | Measured fresh weight survival rate (%) - E (Lolium multiflorum Lamk; 20 gai/ha): 39.56% | Measured fresh weight survival rate (%) - E (Lolium multiflorum Lamk; 40 gai/ha): 6.59% | inhibition at 1.25 g/ha (Lolium multiflorum Lamk; Lolium multiflorum, soil, 840 h, 1.25 gai/ha, read-out: Measured fresh weight inhibition rate (%)): 3.3% | inhibition at 2.5 g/ha (Lolium multiflorum Lamk; Lolium multiflorum, soil, 840 h, 2.5 gai/ha, read-out: Measured fresh weight inhibition rate (%)): 5.49% | inhibition at 5 g/ha (Lolium multiflorum Lamk; Lolium multiflorum, soil, 840 h, 5 gai/ha, read-out: Measured fresh weight inhibition rate (%)): 16.5% | inhibition at 10 g/ha (Lolium multiflorum Lamk; Lolium multiflorum, soil, 840 h, 10 gai/ha, read-out: Measured fresh weight inhibition rate (%)): 39.6% | inhibition at 20 g/ha (Lolium multiflorum Lamk; Lolium multiflorum, soil, 840 h, 20 gai/ha, read-out: Measured fresh weight inhibition rate (%)): 60.4% | inhibition at 40 g/ha (Lolium multiflorum Lamk; Lolium multiflorum, soil, 840 h, 40 gai/ha, read-out: Measured fresh weight inhibition rate (%)): 93.4% | Actual fresh weight survival rate (%) - E (Aegilops tauschii [2]; 5 gai/ha): 93.1% | Actual fresh weight survival rate (%) - E (Aegilops tauschii [2]; 10 gai/ha): 88.8% | Actual fresh weight survival rate (%) - E (Aegilops tauschii [2]; 20 gai/ha): 76.7% | inhibition at 5 g/ha (Aegilops tauschii [2]; Aegilops tauschii, soil, 5 gai/ha, read-out: Actual fresh weight inhibition rate %): 6.9% | inhibition at 10 g/ha (Aegilops tauschii [2]; Aegilops tauschii, soil, 10 gai/ha, read-out: Actual fresh weight inhibition rate %): 11.2% | inhibition at 20 g/ha (Aegilops tauschii [2]; Aegilops tauschii, soil, 20 gai/ha, read-out: Actual fresh weight inhibition rate %): 23.3%
